# Source: PubChem BioAssay (NCI)
#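 Each compound was tested at five concentrations against cells in 96-well plates for 48 hours. Here, GI50 denotes the concentration required for 50% inhibition of growth. TGI denotes the concentration required for complete inhibition of growth.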
# Columns and labels:
# Experiment in all cases: NCI anticancer screen, dose series, 48 h
# MOLT-4 leukemia = tested on: MOLT-4 leukemia
# HCT-15 colon = tested on: HCT-15 colon
# UO-31 renal = tested on: UO-31 renal
# HL-60(TB) leukemia = tested on: HL-60(TB) leukemia
# NCI-H23 lung = tested on: NCI-H23 lung
# HOP-92 NSCLC = tested on: HOP-92 NSCLC
# CAKI-1 renal = tested on: CAKI-1 renal
# HS 578T breast = tested on: HS 578T breast
# OVCAR-4 ovarian = tested on: OVCAR-4 ovarian
# CCRF-CEM leukemia = tested on: CCRF-CEM leukemia
# SK-OV-3 ovarian = tested on: SK-OV-3 ovarian
# ACHN renal = tested on: ACHN renal
# M14 melanoma = tested on: M14 melanoma
# A498 renal = tested on: A498 renal
# SR leukemia = tested on: SR leukemia
# NCI-H460 lung = tested on: NCI-H460 lung
# NCI/ADR-RES ovarian = tested on: NCI/ADR-RES ovarian
# UACC-62 melanoma = tested on: UACC-62 melanoma
# MDA-MB-231 breast = tested on: MDA-MB-231 breast
# SK-MEL-28 melanoma = tested on: SK-MEL-28 melanoma
# RXF 393 renal = tested on: RXF 393 renal
# SN12C renal = tested on: SN12C renal
# MDA-MB-435 = tested on: MDA-MB-435
# SK-MEL-2 melanoma = tested on: SK-MEL-2 melanoma
# BT-549 breast = tested on: BT-549 breast
# KM12 colon = tested on: KM12 colon
# OVCAR-5 ovarian = tested on: OVCAR-5 ovarian
# IGROV1 ovarian = tested on: IGROV1 ovarian
# HT29 colon = tested on: HT29 colon
# HOP-62 NSCLC = tested on: HOP-62 NSCLC
compound,measurement,setting,value
COc1ccc2c(c1)C(=O)c1c-2n(CCCCl)c(=O)c2cc(OC)c(OC)cc12,TGI,MOLT-4 leukemia,6.29 µM
same,GI50,HCT-15 colon,> 96.4 µM
same,TGI,HCT-15 colon,> 100 µM
same,GI50,UO-31 renal,8.4 µM
same,TGI,UO-31 renal,> 100 µM
same,GI50,HL-60(TB) leukemia,4.11 µM
same,TGI,HL-60(TB) leukemia,18 µM
same,GI50,NCI-H23 lung,15.5 µM
same,TGI,NCI-H23 lung,> 100 µM
same,GI50,HOP-92 NSCLC,> 32.6 µM
same,TGI,HOP-92 NSCLC,> 86.4 µM
same,GI50,CAKI-1 renal,6.47 µM
same,TGI,CAKI-1 renal,> 24.4 µM
same,GI50,HS 578T breast,> 77.2 µM
same,TGI,HS 578T breast,> 100 µM
same,GI50,OVCAR-4 ovarian,> 91.7 µM
same,TGI,OVCAR-4 ovarian,> 100 µM
same,GI50,CCRF-CEM leukemia,2.02 µM
same,GI50,SK-OV-3 ovarian,28.6 µM
same,TGI,SK-OV-3 ovarian,> 100 µM
same,GI50,ACHN renal,3.28 µM
same,TGI,ACHN renal,14 µM
same,GI50,M14 melanoma,6.24 µM
same,TGI,M14 melanoma,> 100 µM
same,GI50,A498 renal,> 52.5 µM
same,TGI,A498 renal,> 100 µM
same,GI50,SR leukemia,1.39 µM
same,TGI,SR leukemia,6.62 µM
same,GI50,NCI-H460 lung,2.4 µM
same,TGI,NCI-H460 lung,> 100 µM
same,GI50,NCI/ADR-RES ovarian,11.6 µM
same,TGI,NCI/ADR-RES ovarian,> 100 µM
same,GI50,UACC-62 melanoma,4.6 µM
same,TGI,UACC-62 melanoma,> 100 µM
same,GI50,MDA-MB-231 breast,> 100 µM
same,TGI,MDA-MB-231 breast,> 100 µM
same,GI50,SK-MEL-28 melanoma,> 79.4 µM
same,TGI,SK-MEL-28 melanoma,> 100 µM
same,TGI,RXF 393 renal,> 21.1 µM
same,GI50,SN12C renal,6.67 µM
same,TGI,SN12C renal,> 100 µM
same,GI50,MDA-MB-435,42.5 µM
same,TGI,MDA-MB-435,> 100 µM
same,GI50,SK-MEL-2 melanoma,> 100 µM
same,TGI,SK-MEL-2 melanoma,> 100 µM
same,GI50,BT-549 breast,> 100 µM
same,TGI,BT-549 breast,> 100 µM
same,GI50,KM12 colon,> 54.2 µM
same,TGI,KM12 colon,> 100 µM
same,GI50,OVCAR-5 ovarian,> 100 µM
same,TGI,OVCAR-5 ovarian,> 100 µM
same,GI50,IGROV1 ovarian,17.1 µM
same,TGI,IGROV1 ovarian,> 100 µM
same,GI50,HT29 colon,> 52.1 µM
same,TGI,HT29 colon,> 100 µM
same,GI50,HOP-62 NSCLC,5.13 µM
same,TGI,HOP-62 NSCLC,> 51.3 µM
